Where no end group is shown, it is not given here.
Tested on: Rat bone marrow stem cells (mesenchymal stem cells)
Test: Cell proliferation-promoting activity, WST-8 colorimetry (OD450)
Format: cell-based
Settings: WST-8, 2 hours; for OD450 day 4: four days from start of incubation; for OD450 day 4 / OD450 day 2: bFGF at 10 ng/mL; for OD450 Start: start of the incubation (day 0), 1×10^3 cells per well; for OD450 day 2: two days from start of incubation
Description: The cell proliferation-promoting peptides (Samples 1 to 8) obtained in Example 1 and the peptides composed of only a (A) part sequence (Samples 9 to 11) which had been prepared for comparison were evaluated, respectively, on the cell proliferation-promoting activity. Sample 12 was an experimental control where a commercial bFGF was used as the cell proliferation promoter. Sample 13 was an experimental control where no peptide was added (bFGF was not added, either). The evaluation assay is described in detail below. Each synthesized peptide sample was dissolved in PBS (phosphate buffered saline) to prepare a stock solution having a peptide concentration of 1 mM.
Rat bone marrow stem cells (mesenchymal stem cells) were used as the test cells. In particular, the test stem cells were subcultured in Dulbecco MEM (DMEM: a Gibco product) containing 10% fetal bovine serum (FBS: a Gibco product), 2 mM of L-glutamine, 50 unit/mL of penicillin, and 50 μg/mL of streptomycin. Passage 2 cells were used for the evaluation.
The test stem cells that had been pre-incubated overnight in the DMEM containing 10 ng/mL of bFGF were collected and seeded at 1×10^3 cells per well in a 96-well plate. The amount of the culture medium was […] per well.
Then, the stock solutions containing respective peptides of Samples 1 to 11 were added to some wells, one for each well. For comparison, a commercial bFGF (a PeproTech product) was added at a concentration of 10 ng/mL to some other wells (Sample 12). Similarly, yet some other wells were set up to not to contain any of the sample peptides or bFGF (Sample 13).
After a sample peptide or bFGF was added as described above, the 96-well plate was placed in a CO2 incubator and incubated standing at 37° C. and 5% CO2. Exchange of the culture medium was carried out every other day. The culture medium used for an exchange was the same as the culture medium used initially for the incubation (i.e., for the group containing a sample peptide or bFGF, the same sample peptide or bFGF was added to the exchanged culture medium).
During the course of this incubation assay, water-soluble tetrazolium salt (WST-8) was added to some wells as a staining reagent at the start of the incubation (day 0), when two days had passed from the start (day 2) and when four days had passed from the start (day 4). Incubated for 2 hours after the addition, the cell culture medium with the added staining reagent was collected. The level of cell proliferation was evaluated by colorimetry as optical density measured at 450 nm (OD450) based on reduction of the tetrazolium salt.

YARAAARQARA SLQYLCRFVIRQYTR (YARAAARQARASLQYLCRFVIRQYTR-NH2) [Sample 8]
OD450 day 4: 1.828 | OD450 Start: 0.124 | OD450 day 2: 0.856

YARAAARQARA (YARAAARQARA-NH2) [Sample 10, reference compound]
OD450 day 4: 1.737 | OD450 Start: 0.124 | OD450 day 2: 0.770

YGRKKRRQRRRTLKERCLQVVRSLVK (YGRKKRRQRRRTLKERCLQVVRSLVK-NH2) [Sample 7]
OD450 day 4: 2.279 | OD450 Start: 0.124 | OD450 day 2: 1.340

KKRTLRKNDRKKR TLKERCLQVVRSLVK (KKRTLRKNDRKKRTLKERCLQVVRSLVK) [Sample 4]
OD450 day 4: 2.410 | OD450 Start: 0.124 | OD450 day 2: 1.357

TLDGGDIINALCFS KKRTLRKNDRKKR (TLDGGDIINALCFSKKRTLRKNDRKKR-NH2) [Sample 2]
OD450 day 4: 2.259 | OD450 Start: 0.124 | OD450 day 2: 1.133

Sample 12: experimental control: commercial bFGF (basic fibroblast growth factor, a PeproTech product) at 10 ng/mL
OD450 day 4: 1.977 | OD450 Start: 0.124 | OD450 day 2: 1.022

YARAAARQARA TLKERCLQVVRSLVK (YARAAARQARATLKERCLQVVRSLVK) [Sample 5]
OD450 day 4: 1.971 | OD450 Start: 0.124 | OD450 day 2: 0.926

KKRTLRKNDRKKR LLGNSSPRTQSPQNC (KKRTLRKNDRKKRLLGNSSPRTQSPQNC-NH2) [Sample 3]
OD450 day 4: 2.289 | OD450 Start: 0.124 | OD450 day 2: 1.177

WRRQARFK TLKERCLQVVRSLVK (WRRQARFKTLKERCLQVVRSLVK) [Sample 6]
OD450 day 4: 2.365 | OD450 Start: 0.124 | OD450 day 2: 1.181

TLKERCLQVVRSLVK KKRTLRKNDRKKR (TLKERCLQVVRSLVKKKRTLRKNDRKKR) [Sample 1]
OD450 day 4: 2.369 | OD450 Start: 0.124 | OD450 day 2: 1.264

WRRQARFK [Sample 11, reference compound]
OD450 day 4: 1.744 | OD450 Start: 0.124 | OD450 day 2: 0.799

KKRTLRKNDRKKR (KKRTLRKNDRKKR-NH2) [Sample 9, reference compound]
OD450 day 4: 1.260 | OD450 Start: 0.124 | OD450 day 2: 0.648
